Reference: patent USRE49735E1 (BRISTOL-MYERS SQUIBB COMPANY, priority 2010, dated 2023)
Where “and” joins values, the source holds several entries; their conditions need not be identical. Equal values may be shown once.

Molecular target: human mGluR5A (Homo sapiens, UniProt P41594)
Assay: mGluR5 FLIPR Assay
Format: cell-based
Conditions: positive modulator activity; HEK293 (ZF) cells with human mGluR5A and rat GLAST; Ca++ response to ~EC10 glutamate
Protocol: HEK293 (ZF) cells stably transfected with human mGluR5A (pIRES neo) and the rat glutamate-aspartate transporter (GLAST; pIRES puro) are grown in a monolayer culture at 37° C. in 5% CO2 and fed with Minimum Essential Medium (MEM) supplemented with 10% dialysed fetal bovine serum. 24 hours prior to assay, cells are enzymatically dissociated from the culture flask (Trypsin, 0.25%), spun down (1000 rpm, 3 min), resuspended, and plated on Greiner black clear bottomed PDL-coated 384-well plates at a density of 30 thousand cells/well. […] Plates are incubated in dye at 37° C. in 5% CO2 for 60 minutes prior to delivery of test compounds in assay buffer. Test compounds are incubated with cells in the presence of dye for 10 minutes prior to being read on the FLIPR platform (Molecular Devices). A Ca^++ signal is induced in the assay plates via the delivery of an ˜EC10 concentration of the endogenous agonist 1-glutamate; images are acquired at 1 Hz for 100 seconds post-delivery of agonist stimulus. Positive modulator activity (i.e. the ability of test compounds to increase the Ca^++ response to a sub-maximal concentration of agonist) is normalized to a saturating concentration of a known mGluR5 PAM run in each assay plate. An EC50 concentration of test compounds is derived from 4-parameter logistic curve fits of transformed fluoresence data via proprietary software suite.

human mGluR5A, sequence (P41594 21-1180 isoform P41594-2): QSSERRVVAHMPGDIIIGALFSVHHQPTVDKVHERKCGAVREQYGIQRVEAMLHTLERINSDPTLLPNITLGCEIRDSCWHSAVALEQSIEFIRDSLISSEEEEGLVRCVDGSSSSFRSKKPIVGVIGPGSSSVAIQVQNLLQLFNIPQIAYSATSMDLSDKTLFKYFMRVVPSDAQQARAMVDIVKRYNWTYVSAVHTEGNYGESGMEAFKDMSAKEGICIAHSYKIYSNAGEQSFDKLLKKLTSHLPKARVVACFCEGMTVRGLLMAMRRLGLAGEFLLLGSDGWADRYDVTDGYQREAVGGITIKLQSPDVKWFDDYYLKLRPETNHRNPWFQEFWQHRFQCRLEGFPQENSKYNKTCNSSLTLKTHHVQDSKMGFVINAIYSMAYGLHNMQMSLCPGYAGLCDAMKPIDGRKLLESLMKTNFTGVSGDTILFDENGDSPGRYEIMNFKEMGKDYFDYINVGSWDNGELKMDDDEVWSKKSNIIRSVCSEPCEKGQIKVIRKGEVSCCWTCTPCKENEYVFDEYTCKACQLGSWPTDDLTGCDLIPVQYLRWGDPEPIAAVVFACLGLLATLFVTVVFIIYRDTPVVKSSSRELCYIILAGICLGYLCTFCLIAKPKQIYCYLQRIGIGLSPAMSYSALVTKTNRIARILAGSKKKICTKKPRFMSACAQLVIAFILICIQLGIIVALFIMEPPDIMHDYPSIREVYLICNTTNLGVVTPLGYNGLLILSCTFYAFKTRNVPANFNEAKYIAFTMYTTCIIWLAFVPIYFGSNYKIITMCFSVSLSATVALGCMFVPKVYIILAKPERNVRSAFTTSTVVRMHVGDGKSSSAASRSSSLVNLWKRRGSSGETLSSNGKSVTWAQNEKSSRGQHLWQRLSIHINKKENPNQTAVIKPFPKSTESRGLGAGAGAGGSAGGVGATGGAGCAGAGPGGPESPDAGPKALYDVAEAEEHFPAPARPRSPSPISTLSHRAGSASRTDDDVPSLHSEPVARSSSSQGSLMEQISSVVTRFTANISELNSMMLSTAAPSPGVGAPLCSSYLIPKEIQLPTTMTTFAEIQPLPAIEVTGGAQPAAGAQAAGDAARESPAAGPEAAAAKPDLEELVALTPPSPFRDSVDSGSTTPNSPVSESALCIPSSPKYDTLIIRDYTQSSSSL

| Structure (SMILES) | EC50 |
| --- | --- |
| O=C1N[C@@H](c2cccc(C#Cc3cccnc3)c2)[C@H](c2cnccn2)O1 [Example 248] | > 1000 nM |
| COc1cccc([C@H]2OC(=O)N[C@@H]2c2cncc(C#Cc3ccccc3)c2)c1 (single isomer, unassigned) [Example 33] | < 100 nM |
| O=C1N[C@@H](c2cccc(C#Cc3ccccc3)c2)[C@H](c2cccnn2)O1 [Example 242] | > 1000 nM |
| O=C1N[C@H](c2cncc(C#Cc3ccncc3)c2)[C@@H](c2ccc(F)cc2)O1 [Example 213] | < 100 nM |
| O=C1N[C@H](c2cc(C#Cc3cccc(C4CC4)n3)cnc2F)[C@@H](c2ccc(F)cc2)O1 [Example 153, (4R,5R)-4-(5-((6-Cyclopropylpyridin-2-yl)ethynyl)-2-fluoropyridin-3-yl)-5-(4-fluorophenyl)oxazolidin-2-one] | 100 to 1000 nM and 188 nM |
| COc1cccc([C@@H]2OC(=O)N[C@H]2c2cccc(C#Cc3ccc(C(F)(F)F)cc3)c2)c1 (stereo in doubt) [Example 120, (4S,5S)-5-(3-methoxyphenyl)-4-(3-((4-(trifluoromethyl)phenyl)ethynyl)phenyl)oxazolidin-2-one] | > 1000 nM |
| COc1cccc([C@H]2OC(=O)N[C@@H]2c2cccc(C#Cc3ccc(F)cc3F)c2)c1 [Example 127, (4R,5R)-4-(3-((2,4-difluorophenyl)ethynyl)phenyl)-5-(3-methoxyphenyl)oxazolidin-2-one] | 100 to 1000 nM |
| C[C@@]1(c2cncc(C#Cc3ncccc3F)c2)NC(=O)O[C@H]1c1ccc(F)cc1 (single isomer, unassigned) [Example 343] | > 1000 nM |
| O=C1N[C@@H](c2cccc(C#Cc3ccccc3)c2)[C@H](c2nc(-c3ccccc3)no2)O1 [Example 159] | > 1000 nM |
| O=C1N[C@H](c2ccnc(C#Cc3cccnc3)c2)[C@@H](c2cccc(F)c2)O1 [Example 258] | < 100 nM |
| O=C1N[C@H](c2cncc(C#Cc3ccccc3)c2)[C@@H](c2ccc(Cl)cc2)O1 (single isomer, unassigned) [Example 360] | < 100 nM and 2 nM |
| O=C1N[C@@H](c2cncc(C#Cc3ccccc3)c2)[C@H](c2ccncn2)O1 (single isomer, unassigned) [Example 317] | > 1000 nM |
| O=C1N[C@H](c2cncc(C#Cc3ccccc3)c2)[C@@H](c2cc(F)cc(F)c2)O1 [Example 170] | < 100 nM |
| O=C1N[C@H](c2cncc(C#Cc3cccc(C(F)(F)F)c3)c2)[C@@H](c2cc(F)ccc2F)O1 [Example 386, (4R,5R)-5-(2,5-difluorophenyl)-4-(5-((3-(trifluoromethyl)phenyl)ethynyl)pyridin-3-yl)oxazolidin-2-one] | > 1000 nM |
| O=C1N[C@H](c2cncc(C#Cc3cncc(F)c3)c2)[C@@H](c2cccnc2)O1 [Example 201] | 100 to 1000 nM |
| O=C1N[C@H](c2cncc(C#Cc3ccccc3Cl)c2)[C@@H](c2cc(F)ccc2F)O1 [Example 392, (4R,5R)-4-(5-((2-chlorophenyl)ethynyl)pyridin-3-yl)-5-(2,5-difluorophenyl)oxazolidin-2-one] | < 100 nM |
| O=C1N[C@@H](c2cccc(C#Cc3cnccn3)n2)[C@H](c2ccc(F)cc2)O1 (single isomer, unassigned) [Example 369] | > 1000 nM |
| O=C1N[C@H](c2cncc(C#Cc3cnccn3)c2)[C@@H](c2ccc(F)cc2)O1 [Example 212] | < 100 nM |
| O=C1N[C@H](c2cncc(C#Cc3cccc(Cl)c3)c2)[C@@H](c2cccc(F)c2F)O1 [Example 280] | > 1000 nM |
| COc1cccc([C@H]2OC(=O)N[C@@H]2c2cccc(C#Cc3cc4ccccc4cn3)c2)c1 [Example 67, (4R,5R)-4-(3-(Isoquinolin-3-ylethynyl)phenyl)-5-(3-methoxyphenyl)oxazolidin-2-one] | > 1000 nM |
| O=C1N[C@H](c2cccc(C#Cc3cnccn3)n2)[C@@H](c2ccc(F)cc2)O1 (single isomer, unassigned) [Example 368] | 100 to 1000 nM |
| O=C1N[C@H](c2ccc(C#Cc3ccccc3)nc2)[C@@H](c2cccc(F)c2)O1 [Example 408, (4R,5R)-5-(3-Fluorophenyl)-4-(6-(phenylethynyl)pyridin-3-yl)oxazolidin-2-one] | 100 to 1000 nM |
| Cc1cccc([C@@H]2OC(=O)N[C@@H]2c2cccc(C#Cc3ccccc3)c2)c1 (racemic) [Example 98, cis-4-(3-(phenylethynyl)phenyl)-5-m-tolyloxazolidin-2-one] | > 1000 nM |
| COc1cccc([C@H]2OC(=O)N[C@@H]2c2cccc(C#Cc3ccc(C#N)nc3)c2)c1 [Example 70, 5-((3-((4R,5R)-5-(3-Methoxyphenyl)-2-oxazolidin-4-yl)phenyl)ethynyl)picolinonitrile] | > 1000 nM |

| Structure (SMILES) | EC50 |
| --- | --- |
| COc1cccc([C@H]2OC(=O)N[C@@H]2c2cccc(C#Cc3ccc(Cl)nc3)c2)c1 [Example 82, (4R,5R)-4-(3-((6-Chloropyridin-3-yl)ethynyl)phenyl)-5-(3-methoxyphenyl)oxazolidin-2-one] | 100 to 1000 nM |
| O=C1N[C@H](c2cncc(C#Cc3cncc(F)c3)c2)[C@@H](c2cccc(F)c2)O1 [Example 256] | < 100 nM |
| O=C1N[C@H](c2cncc(C#Cc3ccncn3)c2)[C@@H](c2cc(F)ccc2F)O1 [Example 394, (4R,5R)-5-(2,5-difluorophenyl)-4-(5-(pyrimidin-4-ylethynyl)pyridin-3-yl)oxazolidin-2-one] | > 1000 nM |
| O=C1N[C@H](c2cncc(C#Cc3ccccc3)c2)[C@@H](c2ccccc2Cl)O1 (single isomer, unassigned) [Example 364] | > 1000 nM |
| O=C1N[C@H](c2cncc(C#Cc3ccccc3)c2)[C@@H](c2c(F)cc(F)cc2F)O1 [Example 292] | < 100 nM |
| C[C@@]1(c2ccc(F)cc2)OC(=O)N[C@H]1c1cncc(C#Cc2cncc(F)c2)c1 [Example 207] | > 1000 nM |
| O=C1N[C@H](c2cncc(C#Cc3ccccc3)c2)[C@@H](c2ccncn2)O1 (single isomer, unassigned) [Example 318] | < 100 nM |
| O=C1N[C@@H](c2cccc(C#Cc3ccccc3)c2)[C@H](c2nc(-c3ccncc3)no2)O1 [Example 161] | > 1000 nM |
| COc1cccc([C@H]2OC(=O)N[C@@H]2c2cccc(C#Cc3cccc(C#N)n3)c2)c1 [Example 75, 6-((3-((4R,5R)-5-(3-Methoxyphenyl)-2-oxooxazolidin-4-yl)phenyl)ethynyl)picolinonitrile] | > 30000 nM |
| COc1cccc([C@H]2OC(=O)N[C@@H]2c2cccc(C#Cc3ccccn3)c2)c1 [Example 47, (4R,5R)-5-(3-Methoxyphenyl)-4-(3-(pyridin-2-ylethynyl)phenyl)oxazolidin-2-one] | < 100 nM and 7.4 nM |
| O=C1N[C@H](c2cc(C#Cc3cccnc3)cnc2F)[C@@H](c2ccc(Cl)cc2)O1 [Example 146, (4R,5R)-5-(4-Chlorophenyl)-4-(2-fluoro-5-(pyridin-3-ylethynyl)pyridin-3-yl)oxazolidin-2-on] | < 100 nM |
| O=C1N[C@H](c2ccc(C#Cc3ccccc3)cn2)[C@@H](c2cccc(F)c2)O1 [Example 410, (4R,5R)-5-(3-fluorophenyl)-4-(5-(phenylethynyl)pyridin-2-yl)oxazolidin-2-one] | > 1000 nM |
| COc1cccc([C@H]2OC(=O)N[C@@H]2c2cccc(C#Cc3cccc(F)n3)c2)c1 [Example 72, (4R,5R)-4-(3-((6-Fluoropyridin-2-yl)ethnyl)phenyl)-5-(3-methoxyphenyl)oxazolidin-2-one] | < 100 nM |
| O=C1N[C@@H](c2cccc(C#Cc3ccccc3)c2)[C@H](c2cccs2)O1 (racemic) [Example 103, trans-4-(3-(phenylethynyl)phenyl)-5-(thiophen-2-yl)oxazolidin-2-one] | < 100 nM |
| O=C1N[C@H](c2cncc(C#Cc3cccnc3)c2)[C@@H](c2cccc(F)c2)O1 [Example 35, (4R,5R)-5-(3-Fluorophenyl)-4-(5-(pyridin-3-ylethynyl)pyridin-3-yl)oxazolidin-2-one] | < 100 nM and 6.3 nM |
| O=C1N[C@@H](c2cccc(C#Cc3ccccc3)n2)[C@H](c2cccc(F)c2)O1 [Example 218] | > 1000 nM |
| O=C1N[C@H](c2cncc(C#Cc3cccc(Cl)c3)c2)[C@@H](c2cccc(F)c2)O1 [Example 403, (4R,5R)-4-(5-((3-chlorophenyl)ethynyl)pyridin-3-y1)-5-(3-fluorophenyl)oxazolidin-2-one] | < 100 nM |
| COc1cccc([C@@H]2OC(=O)N[C@H]2c2cccc(C#Cc3ccccc3F)c2)c1 (stereo in doubt) [Example 122, (4S,5S)-4-(3-((2-fluorophenyl)ethynyl)phenyl)-5-(3-methoxyphenyl)oxazolidin-2-one] | > 1000 nM |
| N#Cc1ccc(C#Cc2cncc([C@H]3NC(=O)O[C@@H]3c3cc(F)ccc3F)c2)cc1 [Example 391, 4-((5-((4R,5R)-5-(2,5-difluorophenyl)-2-oxooxazolidin-4-yl)pyridin-3-yl)ethynyl)benzonitrile] | > 1000 nM |
| O=C1N[C@H](c2cncc(C#Cc3ccc(F)cc3)c2)[C@@H](c2cccc(F)c2F)O1 [Example 286] | < 100 nM |
| O=C1N[C@H](c2cccc(C#Cc3ccccc3)c2)[C@@H](c2ccncc2)O1 [Example 234] | < 100 nM and 2.7 nM |
| O=C1N[C@H](c2cncc(C#Cc3ccccc3)c2)[C@@H](c2ccnnc2)O1 (single isomer, unassigned) [Example 322] | < 100 nM |
| O=C1N[C@H](c2ccnc(C#Cc3ccccc3)n2)[C@@H](c2cc(F)ccc2F)O1 (racemic) [Example 270] | > 1000 nM |
